The text below walks through data of ChEMBL document CHEMBL4020706, “Design, synthesis and biological evaluation of novel hydroxamates and 2-aminobenzamides as potent histone deacetylase inhibitors and antitumor agents” (Eur J Med Chem, 2017).

In assay [1] the test system is A549. Briefly: Antiproliferative activity against human A549 cells after 72 hrs by CCK-8 reagent based assay. It counts as functional, cell-based. The settings on record: A549, 72 h. On the technique in general: Tetrazolium dyes change colour on reduction, which living cells bring about.
Assay [2] deals with MGC-803. Briefly: Antiproliferative activity against human MGC803 cells after 72 hrs by CCK-8 reagent based assay. The format is functional, cell-based. Conditions: MGC-803, 72 h.
Assay [3] relates to HepG2. The assay is described as follows: Antiproliferative activity against human HepG2 cells after 72 hrs by CCK-8 reagent based assay. It counts as functional, cell-based. Conditions: HepG2, 72 h.
The test system of assay [4] is HCT-116. The assay is described as follows: Antiproliferative activity against human HCT116 cells after 72 hrs by CCK-8 reagent based assay. It counts as functional, cell-based. Conditions: HCT-116, 72 h.
Assay [5] concerns the target Histone deacetylase 1 (Homo sapiens, UniProt Q13547). The assay is described as follows: Inhibition of human recombinant HDAC1 using Fluor de Lys as substrate by fluorometric assay.
Assay [6] addresses Histone deacetylase 2 (Homo sapiens, UniProt Q92769). Briefly: Inhibition of human recombinant HDAC2 using Fluor de Lys green as substrate by fluorometric assay.
The target in assay [7] is T1, Protein deacetylase HDAC6 (Homo sapiens, UniProt Q9UBN7).
T1 sequence (Q9UBN7 whole entry): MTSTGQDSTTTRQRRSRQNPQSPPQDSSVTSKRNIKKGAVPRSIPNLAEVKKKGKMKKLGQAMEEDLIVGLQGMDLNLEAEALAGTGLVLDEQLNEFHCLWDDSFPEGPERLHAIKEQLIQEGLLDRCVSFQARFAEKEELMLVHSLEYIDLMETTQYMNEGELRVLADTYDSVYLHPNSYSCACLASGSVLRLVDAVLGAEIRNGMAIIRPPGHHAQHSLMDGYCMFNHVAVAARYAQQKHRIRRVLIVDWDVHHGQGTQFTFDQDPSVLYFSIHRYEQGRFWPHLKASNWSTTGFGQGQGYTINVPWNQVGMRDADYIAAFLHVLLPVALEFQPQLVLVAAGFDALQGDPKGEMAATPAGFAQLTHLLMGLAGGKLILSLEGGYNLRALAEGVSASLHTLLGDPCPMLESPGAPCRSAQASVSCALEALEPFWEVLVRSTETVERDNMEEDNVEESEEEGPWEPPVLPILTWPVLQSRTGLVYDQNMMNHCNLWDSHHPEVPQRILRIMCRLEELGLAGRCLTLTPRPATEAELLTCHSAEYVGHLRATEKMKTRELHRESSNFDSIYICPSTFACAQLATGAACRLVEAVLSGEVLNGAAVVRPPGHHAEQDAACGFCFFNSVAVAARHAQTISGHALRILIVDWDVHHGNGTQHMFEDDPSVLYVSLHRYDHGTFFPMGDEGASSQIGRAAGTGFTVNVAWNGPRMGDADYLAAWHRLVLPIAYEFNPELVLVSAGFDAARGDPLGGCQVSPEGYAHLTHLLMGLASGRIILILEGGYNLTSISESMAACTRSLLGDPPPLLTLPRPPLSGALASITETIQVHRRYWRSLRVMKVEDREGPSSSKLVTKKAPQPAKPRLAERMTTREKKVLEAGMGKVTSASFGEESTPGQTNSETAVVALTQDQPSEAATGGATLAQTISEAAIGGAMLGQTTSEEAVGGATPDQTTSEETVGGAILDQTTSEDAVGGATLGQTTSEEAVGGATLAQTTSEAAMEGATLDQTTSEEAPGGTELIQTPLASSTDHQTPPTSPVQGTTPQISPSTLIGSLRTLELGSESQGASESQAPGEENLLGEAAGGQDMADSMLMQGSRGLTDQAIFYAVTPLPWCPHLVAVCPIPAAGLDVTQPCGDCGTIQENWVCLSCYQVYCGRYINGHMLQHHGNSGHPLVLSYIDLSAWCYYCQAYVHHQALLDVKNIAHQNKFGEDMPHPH
Briefly: Inhibition of human recombinant HDAC6 using Fluor de Lys as substrate after 60 mins by fluorometric assay.

Assay [8] concerns A549. The assay is described as follows: Inhibition of colony formation in human A549 cells after 7 days by crystal violet staining based assay. It counts as functional, cell-based.
Assay [9] concerns A549. The assay is described as follows: Induction of apoptosis in human A549 cells assessed as viable cells at 4 umol/L after 48 hrs by Alexa Fluor 488 Annexin/propidium iodide staining-based flow cytometry (reference value: 92.79%). Conditions: A549, 48 h, read-out: Activity. It counts as functional. For orientation: A flow cytometer gives signals particle by particle.
The test system of assay [10] is A549. Briefly: Induction of apoptosis in human A549 cells assessed as early apoptotic cells at 4 umol/L after 48 hrs by Alexa Fluor 488 Annexin/propidium iodide staining-based flow cytometry (reference value: 3.41%). The format is functional.
Assay [11] relates to A549. Briefly: Induction of apoptosis in human A549 cells assessed as late apoptotic cells at 4 umol/L after 48 hrs by Alexa Fluor 488 Annexin/propidium iodide staining-based flow cytometry (reference value: 2.93%). The format is functional.
Assay [12] concerns A549. The assay is described as follows: Induction of apoptosis in human A549 cells assessed as necrotic cells at 4 umol/L after 48 hrs by Alexa Fluor 488 Annexin/propidium iodide staining-based flow cytometry (reference value: 0.87%). It counts as functional.
Assay [13] concerns A549. Briefly: Induction of apoptosis in human A549 cells assessed as viable cells at 8 umol/L after 48 hrs by Alexa Fluor 488 Annexin/propidium iodide staining-based flow cytometry (reference value: 92.79%). It counts as functional. The settings on record: A549, 48 h, read-out: Activity.
Assay [14] concerns A549. Briefly: Induction of apoptosis in human A549 cells assessed as early apoptotic cells at 8 umol/L after 48 hrs by Alexa Fluor 488 Annexin/propidium iodide staining-based flow cytometry (reference value: 3.41%). The format is functional.
Assay [15] deals with A549. The assay is described as follows: Induction of apoptosis in human A549 cells assessed as late apoptotic cells at 8 umol/L after 48 hrs by Alexa Fluor 488 Annexin/propidium iodide staining-based flow cytometry (reference value: 2.93%). It counts as functional.
Assay [16] has as its system A549. The assay is described as follows: Induction of apoptosis in human A549 cells assessed as necrotic cells at 8 umol/L after 48 hrs by Alexa Fluor 488 Annexin/propidium iodide staining-based flow cytometry (reference value: 0.87%). It counts as functional.
Assay [17] concerns A549. Briefly: Induction of apoptosis in human A549 cells after 48 hrs by Alexa Fluor 488 Annexin/propidium iodide staining-based flow cytometry. The format is functional, cell-based.
Assay [18] deals with A549. Briefly: Cell cycle arrest in human A549 cells assessed as accumulation at G0/G1 phase at 2 umol/L after 48 hrs by propidium iodide staining-based flow cytometry (reference value: 75.77%). The format is functional.
The subject of assay [19] is A549. Briefly: Cell cycle arrest in human A549 cells assessed as accumulation at S phase at 2 umol/L after 48 hrs by propidium iodide staining-based flow cytometry (reference value: 15.13%). The format is functional.
The subject of assay [20] is A549. The assay is described as follows: Cell cycle arrest in human A549 cells assessed as accumulation at G2/M phase at 2 umol/L after 48 hrs by propidium iodide staining-based flow cytometry (reference value: 9.1%). The format is functional. The settings on record: at 2 µM.
The subject of assay [21] is A549. The assay is described as follows: Cell cycle arrest in human A549 cells assessed as accumulation at G0/G1 phase at 16 umol/L after 48 hrs by propidium iodide staining-based flow cytometry (reference value: 75.77%). The format is functional.
Assay [22] has as its system A549. The assay is described as follows: Cell cycle arrest in human A549 cells assessed as accumulation at S phase at 16 umol/L after 48 hrs by propidium iodide staining-based flow cytometry (reference value: 15.13%). It counts as functional.
The subject of assay [23] is A549. The assay is described as follows: Cell cycle arrest in human A549 cells assessed as accumulation at G2/M phase at 16 umol/L after 48 hrs by propidium iodide staining-based flow cytometry (reference value: 9.1%). The settings on record: at 16 µM. It counts as functional.
Assay [24] relates to A549. Briefly: Cell cycle arrest in human A549 cells assessed as accumulation at G2/M phase after 48 hrs by propidium iodide staining-based flow cytometry. The format is functional.

Chain of Histone deacetylase 1 (Q13547 whole entry): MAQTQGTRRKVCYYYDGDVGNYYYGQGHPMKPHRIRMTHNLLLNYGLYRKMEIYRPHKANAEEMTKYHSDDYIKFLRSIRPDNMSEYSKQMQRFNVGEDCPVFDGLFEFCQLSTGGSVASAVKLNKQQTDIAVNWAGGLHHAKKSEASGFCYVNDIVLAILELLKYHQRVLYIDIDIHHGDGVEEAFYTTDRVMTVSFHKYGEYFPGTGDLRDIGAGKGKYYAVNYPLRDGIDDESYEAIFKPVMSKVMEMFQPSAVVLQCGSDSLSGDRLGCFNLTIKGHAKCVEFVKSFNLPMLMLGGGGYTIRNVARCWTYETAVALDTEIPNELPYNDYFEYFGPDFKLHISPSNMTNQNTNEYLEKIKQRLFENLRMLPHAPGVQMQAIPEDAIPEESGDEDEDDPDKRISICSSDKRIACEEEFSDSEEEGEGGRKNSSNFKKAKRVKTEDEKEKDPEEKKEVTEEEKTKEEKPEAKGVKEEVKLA
Chain of Histone deacetylase 2 (Q92769 whole entry): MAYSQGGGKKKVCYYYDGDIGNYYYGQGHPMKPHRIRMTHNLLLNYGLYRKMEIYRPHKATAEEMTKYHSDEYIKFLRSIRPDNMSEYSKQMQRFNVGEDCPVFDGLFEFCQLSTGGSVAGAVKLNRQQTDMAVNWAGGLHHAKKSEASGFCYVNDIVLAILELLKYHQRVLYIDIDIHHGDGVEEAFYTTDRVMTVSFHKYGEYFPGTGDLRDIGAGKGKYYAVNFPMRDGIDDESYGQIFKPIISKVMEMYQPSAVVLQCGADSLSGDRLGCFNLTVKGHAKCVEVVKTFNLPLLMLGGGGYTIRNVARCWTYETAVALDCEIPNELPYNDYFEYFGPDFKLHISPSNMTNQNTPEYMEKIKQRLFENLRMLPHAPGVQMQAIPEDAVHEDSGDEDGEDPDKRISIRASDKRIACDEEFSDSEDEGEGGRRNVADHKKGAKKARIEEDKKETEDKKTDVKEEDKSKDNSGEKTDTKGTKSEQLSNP

What is called IC50 is the concentration needed to halve the response being measured. Turning to `Nc1ccccc1NC(=O)c1ccc(COc2ccc(F)cc2)cc1`, the IC50 in assay [1] amounted to 5.37 µM; in assay [2], 4.97 µM; in assay [3], 3.84 µM; in [4], 3.86 µM; in [5] it was 1270 nM; in assay [6] it was 570 nM. In [7], the IC50 is above 40 µM. In addition, in [8], the inhibition entry was “Dose-dependent effect”. Further, in [9], the viability at 4 µM is 70.9%. Besides, the Activity in [10] came out at 14.37%; in assay [11] it was 10.93%; in [12] it was 3.74%; in assay [14], 35.52%; in assay [15], 28.88%; in assay [16], 6.34%. For the same compound, the Activity entry in assay [17] was “Dose-dependent effect”; in [18], 84.93%; in [19] it was 6.1%; in assay [20] it was 8.97%; in [21] it was 54.03%; in [22] it was 8.23%. The results for the Activity in assay [23] and in [24] were 37.74% and “Dose-dependent effect”, respectively. The viability at 8 µM in [13] is 29.7%.
